Reference: ChEMBL document CHEMBL1201862, “PubChem BioAssay data set” (2004)
Values joined by “and” are separate entries in the source; they are usually repeats but may differ in a detail not shown here. Identical values can stand only once.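 Results reflect a 48-hour exposure of cells in 96-well plates to compound at five concentrations. GI50 is the concentration that inhibits growth by half.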 Active and inactive are the calls of the source. Rule as the data show it: active = GI50 up to about 1.1 µM and inactive = higher.

Key:
Test in all cases: NCI anticancer screen, dose series, 48 h
BT-549 = tested on: BT-549
DU-145 = tested on: DU-145
EKVX = tested on: EKVX
HCT-116 = tested on: HCT-116
HCT-15 = tested on: HCT-15
HOP-92 = tested on: HOP-92
HT-29 = tested on: HT-29
LOX IMVI = tested on: LOX IMVI
MCF7 = tested on: MCF7
MDA-MB-231 = tested on: MDA-MB-231
Malme-3M = tested on: Malme-3M
NCI-H460 = tested on: NCI-H460
NCI/ADR-RES = tested on: NCI/ADR-RES
OVCAR-3 = tested on: OVCAR-3
SF-539 = tested on: SF-539
SK-MEL-5 = tested on: SK-MEL-5
SNB-19 = tested on: SNB-19
SNB-75 = tested on: SNB-75
UACC-257 = tested on: UACC-257
UACC-62 = tested on: UACC-62

| Structure (SMILES) | GI50 (BT-549) | GI50 (DU-145) | GI50 (EKVX) | GI50 (HCT-116) | GI50 (HCT-15) | GI50 (HOP-92) | GI50 (HT-29) | GI50 (LOX IMVI) | GI50 (MCF7) | GI50 (MDA-MB-231) | GI50 (Malme-3M) | GI50 (NCI-H460) | GI50 (NCI/ADR-RES) | GI50 (OVCAR-3) | GI50 (SF-539) | GI50 (SK-MEL-5) | GI50 (SNB-19) | GI50 (SNB-75) | GI50 (UACC-257) | GI50 (UACC-62) |
| --- | --- | --- | --- | --- | --- | --- | --- | --- | --- | --- | --- | --- | --- | --- | --- | --- | --- | --- | --- | --- |
| C1=Cc2ccccc2C1.C=C(C)c1ccccc1.[N-]=[N+]=Nc1ccccc1 | > 100 µM (inactive) | > 100 µM (inactive) | 38.5 µM (inactive) | 48.3 µM (inactive) | > 100 µM | 47.1 µM (inactive) | 42.7 µM (inactive) | > 100 µM (inactive) | 31.3 µM (inactive) | > 100 µM (inactive) | > 100 µM (inactive) | 90.4 µM (inactive) | > 100 µM (inactive) | > 100 µM (inactive) | > 100 µM (inactive) | > 100 µM (inactive) | > 100 µM (inactive) | 49 µM (inactive) | 41 µM (inactive) | 45.8 µM (inactive) |
| O=C1/C(=C/c2ccco2)N=C(c2ccccc2)N1c1ccc(S(=O)(=O)Nc2nccs2)cc1 | > 100 µM (inactive) | > 100 µM (inactive) | 33.2 µM (inactive) | > 100 µM (inactive) | 28.9 µM | 73.8 µM (inactive) | > 100 µM (inactive) | > 100 µM (inactive) | 61.4 µM (inactive) | > 100 µM (inactive) | > 100 µM (inactive) | 45.9 µM (inactive) | > 100 µM (inactive) | 83.9 µM (inactive) | > 100 µM (inactive) | 87.9 µM (inactive) | – | > 100 µM (inactive) | 27.6 µM (inactive) | 93.5 µM (inactive) |
| COc1ccc(/N=C/N(C)C)c(C)c1 | 18.3 µM (inactive) | 4.16 µM (inactive) | 10.6 µM (inactive) | 4.15 µM (inactive) | 35.3 µM | 10.5 µM (inactive) | 5.4 µM (inactive) | 3.15 µM (inactive) | 8.26 µM (inactive) | 5.83 µM (inactive) | 9.57 µM (inactive) | – | 44.7 µM (inactive) | 2.36 µM (inactive) | 22.9 µM (inactive) | 3.01 µM (inactive) | 21.6 µM (inactive) | 16.7 µM (inactive) | 2.42 µM (inactive) | 7.08 µM (inactive) |
| COC1CC(C)(NC(C)=O)C2OC(c3ccccc3)OCC2O1 (configuration not stated) | > 100 µM (inactive) | > 100 µM (inactive) | > 100 µM (inactive) | > 100 µM (inactive) | > 100 µM | > 100 µM (inactive) | > 100 µM (inactive) | > 100 µM (inactive) | > 100 µM (inactive) | > 100 µM (inactive) | > 100 µM (inactive) | > 100 µM (inactive) | > 100 µM (inactive) | > 100 µM (inactive) | > 100 µM (inactive) | > 100 µM (inactive) | > 100 µM (inactive) | > 100 µM (inactive) | > 100 µM (inactive) | > 100 µM (inactive) |
| Cc1ccc2c(=O)cc(-c3ccc(-c4ccccc4)s3)[nH]c2n1 | > 33.6 µM (inactive) | > 100 µM (inactive) | 27.2 µM (inactive) | 25.6 µM (inactive) | > 28.8 µM | > 41.2 µM (inactive) | > 100 µM (inactive) | > 48.3 µM (inactive) | 3.27 µM (inactive) | 39.7 µM (inactive) | > 42.9 µM (inactive) | > 59.7 µM (inactive) | > 57.1 µM (inactive) | 24.8 µM (inactive) | 13 µM (inactive) | 2.87 µM (inactive) | 70.1 µM (inactive) | 72.4 µM (inactive) | 8.47 µM (inactive) | 17 µM (inactive) |
| Cc1cc(-c2nc3ccc(F)cc3s2)ccc1NC(=O)C(N)CCCCN (configuration not stated) | 14.4 µM (inactive) | 12.3 µM (inactive) | 12.6 µM (inactive) | 3.71 µM (inactive) | 9.08 µM | 8.2 µM (inactive) | 3.54 µM (inactive) | 2.3 µM (inactive) | 0.0184 µM (active) | 9.38 µM (inactive) | 18.2 µM (inactive) | 1.82 µM (inactive) | 15.1 µM (inactive) | 7.83 µM (inactive) | 3.27 µM (inactive) | 9.68 µM (inactive) | 10.2 µM (inactive) | 4.83 µM (inactive) | 12.8 µM (inactive) | 10.8 µM (inactive) |
| COC(=O)C1OC(O[C@H]2CC[C@]3(C)[C@H]4CC=C5[C@@H]6CC(C)(C)CC[C@]6(C(=O)OC6OCC(O)C(O)C6OC6OC(C)C(OC7OCC(O)C(OC8OCC(O)C(O)C8O)C7O)C(OC7OCC(O)C(O)C7O)C6O)CC[C@@]5(C)[C@]4(C)CC[C@H]3C2(C)C)C(O)C(OC2OCC(O)C(O)C2O)C1O (some centres not stated) | 3.01 µM (inactive) and 2.62 µM (inactive) | 5.79 µM (inactive) and 9.29 µM (inactive) | 3.74 µM (inactive) and 3.72 µM (inactive) | 4.04 µM (inactive) and 4.85 µM (inactive) | 14.1 µM and 27.4 µM | 2.19 µM (inactive) and 2.25 µM (inactive) | 3.1 µM (inactive) and 2.9 µM (inactive) | 7.85 µM (inactive) and 5.43 µM (inactive) | 4.71 µM (inactive) and 3.27 µM (inactive) | 2.73 µM (inactive) and 3.51 µM (inactive) | 3.61 µM (inactive) and 5.04 µM (inactive) | – | 5.11 µM (inactive) and 4.45 µM (inactive) | 9.25 µM (inactive) and 7.82 µM (inactive) | – | 3.8 µM (inactive) and 2.52 µM (inactive) | 7.01 µM (inactive) and 6.22 µM (inactive) | – | 3.17 µM (inactive) and 2.91 µM (inactive) | 3.08 µM (inactive) and 3.77 µM (inactive) |
| CC1OC(n2cnc3c(N)nc(Cl)nc32)C(C)(O)C1O (configuration not stated) | > 25 µM (inactive) | > 25 µM (inactive) | > 25 µM (inactive) | > 25 µM (inactive) | > 25 µM | > 25 µM (inactive) | > 25 µM (inactive) | > 25 µM (inactive) | > 25 µM (inactive) | > 25 µM (inactive) | > 25 µM (inactive) | – | > 25 µM (inactive) | > 25 µM (inactive) | > 25 µM (inactive) | > 25 µM (inactive) | > 25 µM (inactive) | 1.41 µM (inactive) | > 25 µM (inactive) | > 25 µM (inactive) |
| CC(=O)OC[C@@H]1[C@H]2CC[C@]3(C)[C@@H](OC(C)=O)CC[C@H]3[C@@H]2CC[C@H]1C1(C)SCCS1 | > 25 µM (inactive) | > 25 µM (inactive) | > 25 µM (inactive) | > 25 µM (inactive) | > 25 µM | > 25 µM (inactive) | > 25 µM (inactive) | > 25 µM (inactive) | > 25 µM (inactive) | > 25 µM (inactive) | > 25 µM (inactive) | > 25 µM (inactive) | > 25 µM (inactive) | > 25 µM (inactive) | > 25 µM (inactive) | 23.2 µM (inactive) | > 25 µM (inactive) | > 25 µM (inactive) | > 25 µM (inactive) | – |
| CC1(C)CNC(c2ccc3c(c2)Cc2cc(C4=NC(C)(C)CN4)ccc2-3)=N1 | > 100 µM (inactive) | > 100 µM (inactive) | 60 µM (inactive) | 32.8 µM (inactive) | > 100 µM | 90.8 µM (inactive) | 32.1 µM (inactive) | 37 µM (inactive) | 23.3 µM (inactive) | 39.1 µM (inactive) | 24.7 µM (inactive) | 30.8 µM (inactive) | > 100 µM (inactive) | 35.7 µM (inactive) | – | 60.7 µM (inactive) | 35.1 µM (inactive) | 90.6 µM (inactive) | 31 µM (inactive) | 25.3 µM (inactive) |
| Cc1ccc2c(O)c3c(cc2c1)C(=O)c1c2c(cc(O)c1C3=O)C1(C)OC(O2)C(O)C(N(C)C)C1O (configuration not stated) | 1.49 µM (inactive) | 0.767 µM (active) | 1.32 µM (inactive) | 0.296 µM (active) | 0.614 µM | 1.01 µM (active) | 0.495 µM (active) | 1.11 µM (active) | 0.287 µM (active) | 1.33 µM (inactive) | – | 0.109 µM (active) | 1.4 µM (inactive) | 0.794 µM (active) | 1.11 µM (active) | 1.22 µM (inactive) | 1.17 µM (inactive) | 1.04 µM (active) | 1.51 µM (inactive) | 1.07 µM (active) |
| Cc1ccnc(NC(NC(=O)c2ccccc2)(C(F)(F)F)C(F)(F)F)c1 | > 100 µM (inactive) | > 100 µM (inactive) | > 100 µM (inactive) | > 100 µM (inactive) | > 100 µM | > 100 µM (inactive) | > 100 µM (inactive) | > 100 µM (inactive) | > 100 µM (inactive) | > 100 µM (inactive) | > 100 µM (inactive) | – | > 100 µM (inactive) | > 100 µM (inactive) | > 100 µM (inactive) | > 100 µM (inactive) | > 100 µM (inactive) | > 100 µM (inactive) | > 100 µM (inactive) | > 100 µM (inactive) |
| CC(=O)N(C(=O)CC(=O)N/N=C\c1ccc(Br)c(N(CCC#N)CCC#N)c1)c1ccc(Cl)cc1 | 58.9 µM (inactive) | 30.2 µM (inactive) | 60.5 µM (inactive) | 62.4 µM (inactive) | 14 µM | 30.2 µM (inactive) | – | 33.9 µM (inactive) | 52.7 µM (inactive) | 10.6 µM (inactive) | 51.6 µM (inactive) | 74.5 µM (inactive) | 52.8 µM (inactive) | 47.9 µM (inactive) | 71.4 µM (inactive) | – | 25.9 µM (inactive) | 54.2 µM (inactive) | – | 7.55 µM (inactive) |
| CN(C)CCN1Nc2c3ccccc3nc3c(C(=O)NCCCN(C)CCCNC(=O)c4ccc5c6c(c7ccccc7nc46)NN5CCN(C)C)ccc1c23 | 0.178 µM (active) | 0.0217 µM (active) | 0.0504 µM (active) | < 0.01 µM (active) | 0.178 µM | 0.305 µM (active) | < 0.01 µM (active) | < 0.01 µM (active) | < 0.01 µM (active) | 0.0581 µM (active) | < 0.01 µM (active) | < 0.01 µM (active) | 1.36 µM (inactive) | 0.0333 µM (active) | 0.257 µM (active) | 0.0147 µM (active) | < 0.01 µM (active) | < 0.01 µM (active) | 0.0224 µM (active) | 0.0173 µM (active) |
